Experimental data published in PMC6561935, “Hsp90 middle domain phosphorylation initiates a complex conformational program to recruit the ATPase-stimulating cochaperone Aha1” (Nature Communications, 2019).

What was measured:
[1] = target: T1, Hsp90 (human Hsp90α) (Homo sapiens, UniProt P07900, H210A); assay: isothermal titration calorimetry; type: binding
T1 construct: gene HSP90AA1; purified full-length Hsp90α, C-terminally dimerized homodimer

[2] = target: T2, Hsp90 (human Hsp90α) (Homo sapiens, UniProt P07900); assay: isothermal titration calorimetry; type: binding
T2 construct: gene HSP90AA1; purified full-length Hsp90α, C-terminally dimerized homodimer

Work on `Nc1ncnc2c1ncn2[C@@H]1O[C@H](COP(=O)(O)OP(=O)(O)NP(=O)(O)O)[C@@H](O)[C@H]1O` [AMPPNP] yielded a Kd [1] of 170 ± 9.8 µM and a Kd [2] of 220 ± 37 µM.
